Experimental data taken from ChEMBL document CHEMBL3994570, “Euphorbia dendroides Latex as a Source of Jatrophane Esters: Isolation, Structural Analysis, Conformational Study, and Anti-CHIKV Activity” (J Nat Prod, 2016).
Calls of active or inactive are those of the source. The calls are words filed in the database; no cut-off is given here.

Key:
Chikungunya virus = experiment: Antiviral activity against Chikungunya virus 899 infected in African green monkey Vero cells assessed as inhibition of virus-induced cytopathic effect after 6 to 7 days by MTS assay; format: functional; conditions: for EC50: Chikungunya virus, 899, Vero
Vero = experiment: (§1) Cytotoxicity against African green monkey Vero cells assessed as reduction in metabolic activity by MTS assay; format: ADME, cell-based; conditions: chlorocebus sabaeus, vero
[1] = as §1; format: ADME, cell-based; conditions: chlorocebus sabaeus, Vero cells
[2] = Selectivity index, ratio of CC50 for African green monkey Vero cells to EC50 for Chikungunya virus 899 infected in African green monkey Vero cells; format: toxicity; conditions: read-out: Ratio CC50/EC50

In the case of `C=C1[C@H](OC(=O)c2ccccc2)[C@@H](OC(C)=O)[C@@H](OC(C)=O)C(C)(C)/C=C/[C@H](C)C(=O)[C@@]2(O)C[C@@](C)(OC(C)=O)[C@H](O)[C@@H]2[C@H]1OC(=O)C(C)CC` (some centres not stated), the inhibition (Chikungunya virus) is reported as “inactive” and the Activity (Vero) is reported as “Non-Toxic”.
For `C=C1[C@H](OC(=O)C(C)C)[C@@H](OC(C)=O)[C@@H](OC(C)=O)C(C)(C)/C=C/[C@H](C)C(=O)[C@@]2(O)C[C@@](C)(OC(C)=O)[C@H](OC(=O)COC(=O)c3ccccc3)[C@@H]2[C@H]1OC(C)=O`, the EC50 (Chikungunya virus) was 5.5 µM, the CC50 [1] was 17.7 µM and the selectivity ratio [2] was 3.2.
For `C=C1[C@H](OC(=O)c2ccccc2)[C@@H](OC(C)=O)[C@@H](OC(C)=O)C(C)(C)/C=C/[C@H](C)C(=O)[C@@]2(O)C[C@@](C)(OC(C)=O)[C@H](OC(=O)C(C)C)[C@@H]2[C@H]1OC(=O)C(C)C`, the inhibition (Chikungunya virus) was “inactive”.
In the case of `CC(=O)O[C@H]1[C@@H](OC(C)=O)C(C)(C)/C=C/[C@H](C)C(=O)[C@@]2(O)C[C@@](C)(OC(C)=O)[C@H](OC(C)=O)[C@@H]2[C@H]2OC(=O)CC[C@@]2(OC(=O)C(C)C)[C@@H]1OC(=O)C(C)C`, the EC50 (Chikungunya virus) is reported as 15 µM, the CC50 [1] is reported as 36 µM and the selectivity ratio [2] is reported as 2.4.
With `C=C1[C@H](O)[C@H]2[C@@H](OC(=O)c3ccccc3)[C@](C)(O)C[C@]2(O)C(=O)[C@@H](C)/C=C/C(C)(C)[C@H](OC(C)=O)[C@H](OC(C)=O)[C@H]1OC(=O)c1ccccc1` the inhibition (Chikungunya virus) was “inactive”.
With `C=C1[C@H](OC(=O)c2ccccc2)[C@@H](O)[C@@H](OC(C)=O)C(C)(C)/C=C/[C@H](C)C(=O)[C@@]2(O)C[C@@](C)(OC(C)=O)[C@H](O)[C@@H]2[C@H]1OC(=O)c1ccccc1` the inhibition (Chikungunya virus) was “inactive” and the Activity (Vero) was “Non-Toxic”.
For `C=C1[C@H](OC(=O)c2ccccc2)[C@@H](OC(C)=O)[C@@H](OC(C)=O)C(C)(C)/C=C/[C@H](C)C(=O)[C@@]2(O)C[C@@](C)(OC(C)=O)[C@H](OC(C)=O)[C@@H]2[C@H]1OC(=O)C(C)C`, the inhibition (Chikungunya virus) was “inactive”.
With `C=C1[C@H](C(=O)C(C)C)[C@H]2[C@@H](OC(C)=O)[C@](C)(O)C[C@]2(O)C(=O)[C@@H](C)/C=C/C(C)(C)[C@H](OC(C)=O)[C@H](OC(C)=O)[C@H]1OC(=O)c1ccccc1` the inhibition (Chikungunya virus) was “inactive”.
In the case of `C=C1[C@H](OC(=O)c2ccccc2)[C@@H](OC(C)=O)[C@@H](OC(C)=O)C(C)(C)/C=C/[C@H](C)C(=O)[C@@]2(O)C[C@@](C)(OC(C)=O)[C@H](O)[C@@H]2[C@H]1OC(=O)c1ccccc1`, the inhibition (Chikungunya virus) is reported as “inactive” and the Activity (Vero) is reported as “Non-Toxic”.
In the case of `C=C1[C@H](OC(=O)c2ccccc2)[C@@H](OC(C)=O)[C@@H](OC(C)=O)C(C)(C)/C=C/[C@H](C)C(=O)[C@@]2(O)C[C@@](C)(OC(C)=O)[C@H](O)[C@@H]2[C@H]1OC(=O)C(C)C`, the inhibition (Chikungunya virus) is reported as “inactive”.
In the case of `C=C1[C@H](C(=O)C(C)C)[C@H]2[C@@H](OC(C)=O)[C@@H](C)C[C@]2(O)C(=O)[C@@H](C)/C=C/C(C)(C)[C@H](OC(C)=O)[C@H](OC(C)=O)[C@H]1OC(=O)c1ccccc1`, the inhibition (Chikungunya virus) is reported as “inactive”.
For `C=C1[C@H](OC(=O)C(C)C)[C@@H](OC(C)=O)[C@@H](OC(C)=O)C(C)(C)/C=C/[C@H](C)C(=O)[C@@]2(O)C[C@@](C)(OC(C)=O)[C@H](OC(=O)c3ccccc3)[C@@H]2[C@H]1OC(=O)C(C)C`, the inhibition (Chikungunya virus) was “inactive”.
For `CC(=O)O[C@H]1[C@@H](OC(C)=O)C(C)(C)/C=C/[C@@](C)(O)C(=O)[C@@]2(OC(C)=O)C[C@@](C)(OC(C)=O)[C@H](OC(C)=O)[C@@H]2[C@H]2OC(=O)CC[C@@]2(OC(C)=O)[C@@H]1OC(=O)C(C)C`, the inhibition (Chikungunya virus) was “inactive”.
With `CC(=O)O[C@H]1[C@@H](OC(C)=O)C(C)(C)/C=C/[C@@](C)(O)C(=O)[C@@]2(O)C[C@@](C)(OC(C)=O)[C@H](OC(C)=O)[C@@H]2[C@H]2OC(=O)CC[C@@]2(OC(C)=O)[C@@H]1OC(=O)C(C)C` the inhibition (Chikungunya virus) was “inactive”.
With `CC(=O)O[C@H]1[C@@H](OC(C)=O)C(C)(C)/C=C/[C@H](C)C(=O)[C@@]2(OC(C)=O)C[C@@](C)(OC(C)=O)[C@H](O)[C@@H]2[C@H]2OC(=O)CC[C@@]2(OC(C)=O)[C@@H]1OC(=O)C(C)C` the inhibition (Chikungunya virus) was “inactive”.
